{"source": "paper PMC10897196", "about": "“Structure–activity characteristics of phenylalanine analogs selectively transported by L-type amino acid transporter 1 (LAT1)” (Scientific Reports, 2024)", "key": {"human LAT2": {"target": "T1, human LAT2 (Homo sapiens, UniProt Q9UHI5)", "T1 construct": "expressed in transfected cells", "T1 sequence (Q9UHI5 1-535)": "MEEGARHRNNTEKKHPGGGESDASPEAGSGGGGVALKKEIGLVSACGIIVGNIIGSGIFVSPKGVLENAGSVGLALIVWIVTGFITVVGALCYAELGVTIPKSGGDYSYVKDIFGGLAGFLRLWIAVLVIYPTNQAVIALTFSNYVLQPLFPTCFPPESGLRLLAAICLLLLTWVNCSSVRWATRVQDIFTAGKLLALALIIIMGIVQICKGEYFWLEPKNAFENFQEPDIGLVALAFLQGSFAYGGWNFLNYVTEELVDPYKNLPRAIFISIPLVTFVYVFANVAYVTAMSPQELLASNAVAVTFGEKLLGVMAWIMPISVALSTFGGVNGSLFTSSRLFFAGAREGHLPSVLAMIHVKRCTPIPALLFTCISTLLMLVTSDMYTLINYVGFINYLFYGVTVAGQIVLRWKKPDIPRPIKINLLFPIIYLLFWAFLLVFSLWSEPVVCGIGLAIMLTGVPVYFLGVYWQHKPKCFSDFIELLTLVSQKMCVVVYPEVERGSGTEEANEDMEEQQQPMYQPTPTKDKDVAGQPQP", "T1 sequence (P08195 1-529 partner)": "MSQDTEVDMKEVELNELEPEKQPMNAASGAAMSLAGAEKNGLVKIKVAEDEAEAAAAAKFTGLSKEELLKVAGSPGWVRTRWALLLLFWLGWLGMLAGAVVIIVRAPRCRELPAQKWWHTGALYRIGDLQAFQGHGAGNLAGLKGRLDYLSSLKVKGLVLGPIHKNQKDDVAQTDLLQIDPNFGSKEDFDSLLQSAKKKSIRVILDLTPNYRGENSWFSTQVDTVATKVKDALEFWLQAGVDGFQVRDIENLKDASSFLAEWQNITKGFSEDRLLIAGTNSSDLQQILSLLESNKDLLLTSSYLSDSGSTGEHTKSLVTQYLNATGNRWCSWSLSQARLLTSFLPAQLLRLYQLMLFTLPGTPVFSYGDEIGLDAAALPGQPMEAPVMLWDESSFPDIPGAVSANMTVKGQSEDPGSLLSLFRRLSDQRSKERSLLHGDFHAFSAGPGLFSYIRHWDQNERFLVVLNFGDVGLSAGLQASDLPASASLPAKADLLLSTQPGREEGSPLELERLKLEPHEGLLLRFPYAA", "assay": "Efflux of pre-loaded L-[14C]alanine from HEK293-hLAT2 cells induced by extracellular compounds", "type": "cell-based", "details": "1 min", "procedure": "(§1) We evaluated the efflux of pre-loaded L-[^14C]leucine from LAT1 and pre-loaded L-[^14C]alanine from LAT2 induced by extracellularly applied compounds.\n(§2) Efflux experiments were performed as described previously. Cells cultured 48 h were pre-loaded with 5 μM L-[^14C]leucine or L-[^14C]alanine for 10 min at 37 °C. The cells were then washed, and the efflux was induced by incubating cells for 1 min in either the absence or presence of non-radiolabeled test compounds at indicated concentrations. The efflux time of 1 min fell within the linear range of time-dependent substrate efflux mediated by LAT1 and LAT2 (Supplementary Fig. S2). Following incubation, the medium was collected and radioactivity was measured in both the medium and the cells. Efflux was quantified as the percentage of radioactivity released into the medium, calculated using the formula: radioactivity of medium/(radioactivity of medium + radioactivity of cells) × 100%.\n(§3) The kinetic parameters for the efflux of L-[^14C]leucine or L-[^14C]alanine induced by various concentrations of extracellularly-applied test compounds were analyzed. The baseline efflux values—those obtained in the absence of test compounds—were subtracted from the values measured in the presence of the compounds. The resultant data were fitted to Michaelis–Menten kinetics to determine the Km and Vmax by nonlinear regression analysis using “enzyme kinetics-velocity as a function of substrate” module within GraphPad Prism software."}, "human LAT1": {"target": "T2, human LAT1 (Homo sapiens, UniProt Q01650)", "T2 construct": "expressed in transfected cells", "T2 sequence (Q01650 whole entry, one chain of several)": "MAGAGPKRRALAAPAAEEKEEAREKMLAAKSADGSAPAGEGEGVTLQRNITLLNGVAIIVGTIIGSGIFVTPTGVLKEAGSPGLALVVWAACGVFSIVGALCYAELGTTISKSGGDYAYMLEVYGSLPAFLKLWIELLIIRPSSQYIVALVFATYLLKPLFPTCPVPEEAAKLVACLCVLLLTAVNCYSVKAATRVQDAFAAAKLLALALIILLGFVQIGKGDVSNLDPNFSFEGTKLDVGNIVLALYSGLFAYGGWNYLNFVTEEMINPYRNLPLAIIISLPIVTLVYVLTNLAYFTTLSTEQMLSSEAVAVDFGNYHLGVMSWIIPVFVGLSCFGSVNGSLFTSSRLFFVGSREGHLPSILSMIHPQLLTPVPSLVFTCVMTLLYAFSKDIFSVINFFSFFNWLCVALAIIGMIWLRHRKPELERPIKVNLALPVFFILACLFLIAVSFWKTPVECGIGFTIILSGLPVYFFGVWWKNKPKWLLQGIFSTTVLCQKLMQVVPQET", "assay": "Efflux of pre-loaded L-[14C]leucine from HEK293-hLAT1 cells induced by extracellular compounds", "type": "cell-based", "details": "1 min", "procedure": "as §1, §2, §3"}, "[1]": {"details": "LAT1, L-[14C]leucine efflux, mean ± S.E.M., n = 3"}}, "data": [{"molecule": "N[C@]1(C(=O)O)CCc2ccccc2C1", "note": "[bicyclic-Phe, (R)-2-amino-1,2,3,4-tetrahydro-2-naphthoic acid]", "values": [{"measurement": "Vmax of efflux (% radioactivity/min)", "setting": "human LAT2; LAT2, L-[14C]alanine efflux, mean ± S.E.M., n = 3", "value": "10.05 ± 0.27", "unit": "% radioactivity/min"}, {"measurement": "LAT2-mediated L-[14C]alanine efflux induced (in words)", "setting": "human LAT2; compounds at 10, 30, 100 μM", "value": "not efficiently transported by LAT2"}, {"measurement": "Km", "setting": "human LAT1; [1]", "value": "27.3 ± 3.08", "unit": "µM"}, {"measurement": "Vmax of efflux (% radioactivity/min)", "setting": "human LAT1; [1]", "value": "15.43 ± 0.40", "unit": "% radioactivity/min"}, {"measurement": "LAT1-mediated L-[14C]leucine efflux induced (in words)", "setting": "human LAT1; compounds at 10, 30, 100 μM", "value": "transported by LAT1 as substrates"}]}]}
